# Laboratory results reported in patent US11427548B2 (Arvinas Operations, Inc., priority 2015, dated 2022).
# Molecular target: T1, Androgen Receptor (Homo sapiens, UniProt P10275)
# T1 construct: endogenous in cells; host or cells: VCaP cells
# T1 sequence (P10275 1-920): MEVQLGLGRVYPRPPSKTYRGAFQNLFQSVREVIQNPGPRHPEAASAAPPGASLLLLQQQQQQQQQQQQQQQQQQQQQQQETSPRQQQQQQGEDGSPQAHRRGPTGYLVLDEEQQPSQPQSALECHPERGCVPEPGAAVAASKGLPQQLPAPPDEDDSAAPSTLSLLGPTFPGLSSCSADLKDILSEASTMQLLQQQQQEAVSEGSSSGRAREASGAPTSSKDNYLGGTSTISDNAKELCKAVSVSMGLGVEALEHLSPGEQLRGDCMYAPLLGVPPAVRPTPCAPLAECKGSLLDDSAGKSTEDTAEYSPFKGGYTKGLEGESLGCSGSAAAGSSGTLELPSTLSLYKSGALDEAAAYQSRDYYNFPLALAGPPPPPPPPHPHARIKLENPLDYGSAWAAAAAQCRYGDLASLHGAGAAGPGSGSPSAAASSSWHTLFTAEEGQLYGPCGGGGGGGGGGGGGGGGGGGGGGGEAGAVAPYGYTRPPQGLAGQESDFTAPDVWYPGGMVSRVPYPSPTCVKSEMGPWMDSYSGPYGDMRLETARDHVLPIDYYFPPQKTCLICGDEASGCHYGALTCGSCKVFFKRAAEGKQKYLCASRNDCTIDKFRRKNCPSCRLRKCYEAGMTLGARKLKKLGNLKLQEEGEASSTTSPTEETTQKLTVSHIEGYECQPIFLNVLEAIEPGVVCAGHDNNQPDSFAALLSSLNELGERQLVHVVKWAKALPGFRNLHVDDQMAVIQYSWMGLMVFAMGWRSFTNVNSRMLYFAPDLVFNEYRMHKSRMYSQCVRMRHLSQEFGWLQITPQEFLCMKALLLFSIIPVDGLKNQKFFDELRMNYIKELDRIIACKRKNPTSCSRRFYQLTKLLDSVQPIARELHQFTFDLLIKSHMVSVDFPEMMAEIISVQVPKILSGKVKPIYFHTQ
# Assay: Androgen Receptor ELISA assay (PathScan AR ELISA) in VCaP cells: AR degradation, Dmax and DC50
# Format: cell-based
# Details: VCaP cells (Table 32); for Dmax: VCaP, highest percentage of Androgen Receptor degradation observed, read-out: VCaP Dmax (%); for DC50: concentration that caused 50% Androgen Receptor degradation, read-out: VCaP DC50
# Summary of the method: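 After 24 h exposure of VCaP cells (charcoal-stripped serum, 0.1 nM R1881 agonist, 0.1% DMSO) to seven half-log compound concentrations, residual AR in lysates was measured by PathScan ELISA (TMB absorbance, 450 nm). Cells were plated at 30,000/well and grown at least 3 days beforehand.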
Structure (SMILES),Dmax [%],DC50 [µM]
"Cc1ncsc1-c1ccc([C@H](C)NC(=O)[C@@H]2C[C@@H](O)CN2C(=O)[C@@H](NC(=O)COCCCCOc2ccc(C(=O)N[C@H]3C(C)(C)[C@H](Oc4ccc(C#N)c(Cl)c4)C3(C)C)cc2)C(C)(C)C)cc1 [Example 167, (2S,4R)-1-[(2S)-3,3-dimethyl-2-{2-[4-(4-{[trans-3-(3-chloro-4-cyanophenoxy)-2,2,4,4-tetramethylcyclobutyl]carbamoyl}phenoxy)butoxy]acetamido}butanoyl]-4-hydroxy-N-[(1S)-1-[4-(4-methyl-1,3-thiazol-5-yl)phenyl]ethyl]pyrrolidine-2-carboxamide]",> 71,< 0.05
"Cc1ncoc1-c1ccc([C@H](C)NC(=O)[C@@H]2C[C@@H](O)CN2C(=O)[C@@H](NC(=O)COCCCCOc2ccc(C(=O)N[C@H]3C(C)(C)[C@H](Oc4ccc(C#N)c(Cl)c4)C3(C)C)cc2)C(C)(C)C)cc1 [Example 168, (2S,4R)-1-[(2S)-3,3-dimethyl-2-{2-[4-(4-{[trans-3-(3-chloro-4-cyanophenoxy)-2,2,4,4-tetramethylcyclobutyl]carbamoyl}phenoxy)butoxy]acetamido}butanoyl]-4-hydroxy-N-[(1S)-1-[4-(4-methyl-1,3-oxazol-5-yl)phenyl]ethyl]pyrrolidine-2-carboxamide]",> 71,< 0.05
"Cc1ncsc1-c1ccc([C@@H](C)NC(=O)[C@@H]2C[C@@H](O)CN2C(=O)[C@@H](NC(=O)COCCCCOc2ccc(C(=O)N[C@H]3C(C)(C)[C@H](Oc4ccc(C#N)c(Cl)c4)C3(C)C)cc2)C(C)(C)C)cc1 [Example 171, (2S,4R)-1-[(2S)-3,3-dimethyl-2-{2-[4-(4-{[trans-3-(3-chloro-4-cyanophenoxy)-2,2,4,4-tetramethylcyclobutyl]carbamoyl}phenoxy)butoxy]acetamido}butanoyl]-4-hydroxy-N-[(1R)-1-[4-(4-methyl-1,3-thiazol-5-yl)phenyl]ethyl]pyrrolidine-2-carboxamide]",26 to 50,< 0.05
"Cc1ncoc1-c1ccc(CNC(=O)[C@@H]2C[C@@H](O)CN2C(=O)[C@@H](NC(=O)COCCCCCNc2ccc(C(=O)N[C@H]3C(C)(C)[C@H](Oc4ccc(C#N)c(Cl)c4)C3(C)C)cc2)C(C)(C)C)cc1 [Example 173, (2S,4R)-1-[(2S)-3,3-dimethyl-2-[2-({5-[(4-{[trans-3-(3-chloro-4-cyanophenoxy)-2,2,4,4-tetramethylcyclobutyl]carbamoyl}phenyl)amino]pentyl}oxy)acetamido]butanoyl]-4-hydroxy-N-{[4-(4-methyl-1,3-oxazol-5-yl)phenyl]methyl}pyrrolidine-2-carboxamide]",> 71,< 0.05
"Cc1ncsc1-c1ccc(CNC(=O)[C@@H]2C[C@@H](O)CN2C(=O)[C@@H](NC(=O)COCCCCNc2ccc(C(=O)N[C@H]3C(C)(C)[C@H](Oc4ccc(C#N)c(Cl)c4)C3(C)C)cc2)C(C)(C)C)cc1 [Example 175, (2S,4R)-1-[(2S)-3,3-dimethyl-2-(2-{4-[(4-{[trans-3-(3-chloro-4-cyanophenoxy)-2,2,4,4-tetramethylcyclobutyl]carbamoyl}phenyl)amino]butoxy}acetamido)butanoyl]-4-hydroxy-N-{[4-(4-methyl-1,3-thiazol-5-yl)phenyl]methyl}pyrrolidine-2-carboxamide]",51 to 70,< 0.05
"Cc1ncsc1-c1ccc(CNC(=O)[C@@H]2C[C@@H](O)CN2C(=O)[C@@H](NC(=O)COCCCCCNc2ccc(C(=O)N[C@H]3C(C)(C)[C@H](Oc4ccc(C#N)c(Cl)c4)C3(C)C)cc2F)C(C)(C)C)cc1 [Example 176, (2S,4R)-1-[(2S)-2-[2-({5-[(2-fluoro-4-{[trans-3-(3-chloro-4-cyanophenoxy)-2,2,4,4-tetramethylcyclobutyl]carbamoyl}phenyl)amino]pentyl}oxy)acetamido]-3,3-dimethylbutanoyl]-4-hydroxy-N-{[4-(4-methyl-1,3-thiazol-5-yl)phenyl]methyl} pyrrolidine-2-carboxamide]",> 71,< 0.05
"Cc1ncsc1-c1ccc([C@H](C)NC(=O)[C@@H]2C[C@@H](O)CN2C(=O)[C@@H](NC(=O)COCCCCNc2ccc(C(=O)N[C@H]3C(C)(C)[C@H](Oc4ccc(C#N)c(Cl)c4)C3(C)C)cc2)C(C)(C)C)cc1 [Example 177, (2S,4R)-1-[(2S)-3,3-dimethyl-2-(2-{4-[(4-{[trans-3-(3-chloro-4-cyanophenoxy)-2,2,4,4-tetramethylcyclobutyl]carbamoyl}phenyl)amino]butoxy}acetamido)butanoyl]-4-hydroxy-N-[(1S)-1-[4-(4-methyl-1,3-thiazol-5-yl)phenyl]ethyl]pyrrolidine-2-carboxamide]",> 71,< 0.05
"Cc1ncsc1-c1ccc([C@@H](C)NC(=O)[C@@H]2C[C@@H](O)CN2C(=O)[C@@H](NC(=O)COCCCCNc2ccc(C(=O)N[C@H]3C(C)(C)[C@H](Oc4ccc(C#N)c(Cl)c4)C3(C)C)cc2)C(C)(C)C)cc1 [Example 178, (2S,4R)-1-[(2S)-3,3-dimethyl-2-(2-{4-[(4-{[trans-3-(3-chloro-4-cyanophenoxy)-2,2,4,4-tetramethylcyclobutyl]carbamoyl}phenyl)amino]butoxy}acetamido)butanoyl]-4-hydroxy-N-[(1R)-1-[4-(4-methyl-1,3-thiazol-5-yl)phenyl]ethyl]pyrrolidine-2-carboxamide]",26 to 50,< 0.05
Cc1ncoc1-c1ccc(CNC(=O)[C@@H]2C[C@@H](O)CN2C(=O)[C@@H](NC(=O)CCCOc2ccc(-c3ccc(C(=O)N[C@H]4C(C)(C)[C@H](Oc5ccc(C#N)c(Cl)c5)C4(C)C)cc3)cc2)C(C)(C)C)cc1 [Example 180],> 71,< 0.05
Cc1ncoc1-c1ccc(CNC(=O)[C@@H]2C[C@@H](O)CN2C(=O)[C@@H](NC(=O)COCCOc2ccc(-c3ccc(C(=O)N[C@H]4C(C)(C)[C@H](Oc5ccc(C#N)c(Cl)c5)C4(C)C)cc3)cc2)C(C)(C)C)cc1 [Example 181],> 71,< 0.05
"Cc1ncoc1-c1ccc(CNC(=O)[C@@H]2C[C@@H](O)CN2C(=O)[C@@H](NC(=O)COCc2ccc(Oc3ccc(C(=O)N[C@H]4C(C)(C)[C@H](Oc5ccc(C#N)c(Cl)c5)C4(C)C)cc3)cc2)C(C)(C)C)cc1 [Example 184, (2S,4R)-1-[(2S)-3,3-dimethyl-2-(2-{[4-(4-{[(1r,3r)-3-(3-chloro-4-cyanophenoxy)-2,2,4,4-tetramethylcyclobutyl]carbamoyl}phenoxy)phenyl]methoxy}acetamido)butanoyl]-4-hydroxy-N-{[4-(4-methyl-1,3-oxazol-5-yl)phenyl]methyl}pyrrolidine-2-carboxamide]",> 71,< 0.05
"Cc1ncsc1-c1ccc(CNC(=O)[C@@H]2C[C@@H](O)CN2C(=O)[C@@H](NC(=O)COCCOc2ccc(Oc3ccc(C(=O)N[C@H]4C(C)(C)[C@H](Oc5ccc(C#N)c(Cl)c5)C4(C)C)cc3)cc2)C(C)(C)C)cc1 [Example 185, (2S,4R)-1-[(2S)-3,3-dimethyl-2-(2-{2-[4-(4-{[trans-3-(3-chloro-4-cyanophenoxy)-2,2,4,4-tetramethylcyclobutyl]carbamoyl}phenoxy)phenoxy]ethoxy}acetamido)butanoyl]-4-hydroxy-N-{[4-(4-methyl-1,3-thiazol-5-yl)phenyl]methyl}pyrrolidine-2-carboxamide]",> 71,< 0.05
"Cc1ncoc1-c1ccc(CNC(=O)[C@@H]2C[C@@H](O)CN2C(=O)[C@@H](NC(=O)COCCOc2ccc(Oc3ccc(C(=O)N[C@H]4C(C)(C)[C@H](Oc5ccc(C#N)c(Cl)c5)C4(C)C)cc3)cc2)C(C)(C)C)cc1 [Example 186, (2S,4R)-1-[(2S)-3,3-dimethyl-2-(2-{2-[4-(4-{[trans-3-(3-chloro-4-cyanophenoxy)-2,2,4,4-tetramethylcyclobutyl]carbamoyl}phenoxy)phenoxy]ethoxy}acetamido)butanoyl]-4-hydroxy-N-{[4-(4-methyl-1,3-oxazol-5-yl)phenyl]methyl}pyrrolidine-2-carboxamide]",> 71,< 0.05
"Cc1ncsc1-c1ccc(CNC(=O)[C@@H]2C[C@@H](O)CN2C(=O)[C@@H](NC(=O)CNC(=O)c2ccc(Oc3ccc(C(=O)N[C@H]4C(C)(C)[C@H](Oc5ccc(C#N)c(Cl)c5)C4(C)C)cc3)cc2)C(C)(C)C)cc1 [Example 187, (2S,4R)-1-[(2S)-3,3-dimethyl-2-(2-{[4-(4-{[trans-3-(3-chloro-4-cyanophenoxy)-2,2,4,4-tetramethylcyclobutyl]carbamoyl}phenoxy)phenyl] formamido}acetamido)butanoyl]-4-hydroxy-N-{[4-(4-methyl-1,3-thiazol-5-yl)phenyl]methyl} pyrrolidine-2-carboxamide]",> 71,< 0.05
